Molecules are shown by their SMILES.

Holding throughout (type): in vivo
Assay [1] has as its system goosegrass (Eleusine indica (L.) Gaertn.). Nature of the assay: Test Example 1: soil treatment pot test, visually observed growth inhibition of goosegrass. Conditions: soil treatment one day after sowing, 14 days after treatment, 0 = non-treated, 100 = complete kill, read-out: Growth inhibition rate (%) of goosegrass, Measured value. From the text: When the herbicidal activity in a case where two active ingredients are combined, is larger than the simple sum of the respective herbicidal activities of the two active ingredients (the expected activity), it is called a synergistic effect. The activity expected by the combination of two active ingredients can be calculated as follows (Colby S. R., “Weed”, vol. 15, p. 20-22, 1967). […] β: growth inhibition rate when treated with y (g/ha) of herbicide Y, E: growth inhibition rate expected when treated with x (g/ha) of herbicide X and y (g/ha) of herbicide Y. That is, when the actual growth inhibition rate (measured value) is larger than the growth inhibition rate by the above calculation (calculated value), the activity by the combination can be regarded as showing a synergistic effect. […] Further, in accordance with the Colby's formula, the growth inhibition rate (%) (calculated value) was calculated.

Assay [2] has as its system bermuda grass (Cynodon dactylon (L.) Pers.). The assay can be described thus: Test Example 2: foliar treatment pot test, visually observed growth inhibition of bermuda grass. Conditions: 504 h, foliar treatment at 4.0 to 4.5 leaf stage, 0.25 vol % Agral, 21 days after treatment, read-out: Growth inhibition rate (%) of bermuda grass, Measured value. From the text: (§1) When the herbicidal activity in a case where two active ingredients are combined, is larger than the simple sum of the respective herbicidal activities of the two active ingredients (the expected activity), it is called a synergistic effect. The activity expected by the combination of two active ingredients can be calculated as follows (Colby S. R., “Weed”, vol. 15, p. 20-22, 1967). E=α+β−(α×β÷100) where α: growth inhibition rate when treated with x (g/ha) of herbicide X,
(§2) β: growth inhibition rate when treated with y (g/ha) of herbicide Y,
(§3) E: growth inhibition rate expected when treated with x (g/ha) of herbicide X and y (g/ha) of herbicide Y.
(§4) That is, when the actual growth inhibition rate (measured value) is larger than the growth inhibition rate by the above calculation (calculated value), the activity by the combination can be regarded as showing a synergistic effect.
(§5) Growth inhibition rate (%)=0 (equivalent to the non-treated area) to 100 (complete kill)
Upland field soil was put into a 1/1,000,000 ha pot, and seeds of bermuda grass (Cynodon dactylon (L.) Pers.) were sown. […]

Assay [3] deals with green kyllinga (Cyperus brevifolius var. leiolepis). The assay can be described thus: Test Example 3: foliar treatment pot test, visually observed growth inhibition of green kyllinga. Conditions: 672 h, read-out: Growth inhibition rate (%) of green kyllinga, Measured value.
Source text: as §1, §2, §3, §4, §5
Upland field soil was put into a 1/1,000,000 ha pot, and tubers of green kyllinga (Cyperus brevifolius var. leiolepis) were planted. […]

The subject of the next assay is corn (Zea mays L.). The assay can be described thus: Test Example 4: soil treatment pot test, visually observed growth inhibition of corn (crop plant which became weeds). Conditions: soil treatment one day after sowing, 28 days after treatment, read-out: Growth inhibition rate (%) of corn, Measured value. From the text: When the herbicidal activity in a case where two active ingredients are combined, is larger than the simple sum of the respective herbicidal activities of the two active ingredients (the expected activity), it is called a synergistic effect. The activity expected by the combination of two active ingredients can be calculated as follows (Colby S. R., “Weed”, vol. 15, p. 20-22, 1967). […] β: growth inhibition rate when treated with y (g/ha) of herbicide Y, E: growth inhibition rate expected when treated with x (g/ha) of herbicide X and y (g/ha) of herbicide Y. That is, when the actual growth inhibition rate (measured value) is larger than the growth inhibition rate by the above calculation (calculated value), the activity by the combination can be regarded as showing a synergistic effect. […] One day later, water dispersible granules containing flazasulfuron as an active ingredient (tradename: SHIBAGEN DF) and water dispersible granules containing amicarbazone as an active ingredient ([…]) in predetermined amounts were diluted with water (corresponding to 200 Uha) and applied for soil treatment by a small sprayer.

As for `CC(C)c1nn(C(=O)NC(C)(C)C)c(=O)n1N` [Amicarbazone, 4-amino-N-tertiary butyl-4,5-dihydro-3-isopropyl-5-oxo-1,2,4-1H-triazole-1-carboxamide], the inhibition at 1050 g/ha in assay [1] (dose 1050 g/ha) stood at 68%. In addition, the inhibition at 150 g/ha in assay [2] (dose 150 g/ha) is 0%. Further, in assay [3] (foliar), the inhibition at 1250 g/ha is 69%. For the same compound, the inhibition at 2500 g/ha with corn (Zea mays L.) (dose 2500 g/ha) was 87%.

As to `COc1cc(OC)nc(NC(=O)NS(=O)(=O)c2ncccc2C(F)(F)F)n1` [Flazasulfuron, 1-(4,6-dimethoxypyrimidin-2-yl)-3-(3-trifluoromethyl-2-pyridylsulfonyl)urea], in assay [1] (dose 37.5 g/ha), the inhibition at 37.5 g/ha worked out at 53%. The inhibition at 200 g/ha in assay [2] (dose 200 g/ha) amounted to 15%. Besides, the inhibition at 5 g/ha was 0% in assay [3] (dose 5 g/ha, foliar treatment at 6.0 to 7.0 cm, 0.025 vol % Agral, 28 days after treatment) and 40% in the assay with corn (Zea mays L.) (dose 5 g/ha).

Broadly, the inhibition is the share of the control response that was lost under treatment.

The values are drawn from US8921272B2, “Herbicidal composition” (Ishihara Sangyo Kaisha, Ltd., priority 2011, dated 2014).
